pEC50, pIC50: −log10 of the molar value. Calls of active or inactive are those of the source.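 How the source made its calls: active means compounds giving half or more protection of infected cells from virus-caused growth loss, again on retest; inactive means the rest.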 Where a SMILES comes first, the peptide text is derived from it.
Test system: CEM cells HIV-1 protection, formazan growth assay
Test: NCI AIDS Antiviral Assay
Details: for pIC50: measured here: growth of uninfected CEM cells
Summary of the method: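 Human CEM cells, uninfected and HIV-1-infected, exposed to five drug concentrations; growth measured by soluble formazan assay and scored as percent protection from infection, with protecting compounds retested.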

Row | SMILES | pEC50 | pIC50 | outcome
1 | Cc1cc(S(N)(=O)=O)c(SCc2nc(N)nc(N(C)C)n2)cc1Cl | < 3.70 | < 3.70 | 
2 | Nc1nc2c(ccc3ccccc32)[nH]1 |  |  | inactive
3 | S=C1CC(c2ccccc2)Sc2cc(Cl)ccc2N1 (configuration not stated) | < 3.70 | 5.90 | 
4 | O=C1c2ccsc2C(=O)c2ccsc21 | < 5.18 | 5.29 | 
5 | Clc1ccc(Oc2ccc(N=Cc3ccc(Cl)cc3Cl)cc2Cl)cc1 | < 3.70 | 5.27 | 
6 | COc1ccc(-c2cc(=O)c3c(O)cc(O)cc3o2)cc1 | < 3.98 | < 3.98 | 
7 | O=C(Nc1ccc(-c2ccccn2)oc1=O)c1ccccc1 | < 3.70 | < 3.70 | 
8 | CCSc1cc(=O)n(C)c(=O)n1C |  |  | inactive
9 | CCOC(=O)CC(C)P(c1ccccc1)C(C)CC(=O)OCC (configuration not stated) | < 3.13 | < 3.13 | 
10 | COC(=O)c1ccc(N2CC=C(C)C(c3ccc(OC)cc3)O2)cc1 (configuration not stated) | < 4.81 | < 4.81 | 
11 | Cn1c2ccccc2c2nnc(N/N=C/c3ccccn3)nc21 | < 3.70 | 6.94 | 
12 | CC(=O)NCCSSCCSC(=S)N1CCCCC1 | < 3.70 | 4.47 | 
13 | CC(=O)c1ccc2c(c1)CC1(C2)Cc2ccc3c(c2C1=O)CCC3 (configuration not stated) | < 3.70 | 4.48 | 
14 | CC(C)CC(NC(=O)CN)C(=O)NC(C)C(=O)NC(C)C(=O)NC(CO)C(=O)NC(C)C(N)=O (configuration not stated) (H-GLAASA-NH2; configuration not given here) |  |  | inactive
15 | N#CC(C#N)=C1CCN2CCCc3cccc1c32 | < 3.70 | 3.89 | 
16 | COc1ccc(C(=O)C/C(=N/NC(N)=S)C(=O)Nc2ccccc2)cc1 | < 4.60 | < 4.60 | 
17 | CC1=CCC(O)C=CC(C)C(O)C(C)C=C(C)C(=O)c2c(O)c(C)cc3c2C(=O)C(N)=C(NC(=O)/C=C\C=C/C=CC(C)C(O)CC1=O)C3=O (configuration not stated) | < 3.74 | 4.01 | 
18 | CC1=C(C#N)C(N)=C2C(C)=C(C#N)C(N)=C12 |  |  | inactive
19 | C=CC1(c2ccc(-c3ccccc3)cc2)OCCO1 | < 3.70 | 4.09 | 
20 | COc1cc2c(c(OC)c1OC)-c1ccc(O)cc1C(NC(C)=O)CC2 (configuration not stated) | < 5.70 | 7.22 | 
21 | C/C(CC(O)(C(F)(F)F)C(F)(F)F)=N/Nc1ccc([N+](=O)[O-])cc1[N+](=O)[O-] | < 3.70 | 5.85 | 
22 | C(#CC[P+](c1ccccc1)(c1ccccc1)c1ccccc1)C[P+](c1ccccc1)(c1ccccc1)c1ccccc1 | < 3.70 | 4.44 | 
23 | CCOC(=O)C1C(=O)CN2CCc3c([nH]c4ccccc34)C12C(=O)OCC (configuration not stated) | < 3.59 | 3.79 | 

Row | SMILES | pEC50 | pIC50 | outcome
24 | COc1cccc2c1CCc1ccccc1CC2=O | < 4.27 | < 4.27 | 
25 | Nn1c(-c2ccccc2Nc2ccccc2-c2n[nH]c(=S)n2N)n[nH]c1=S | < 4.30 | 5.21 | 
26 | COc1ccc(OC2OC(COC(c3ccccc3)(c3ccc(OC)cc3)c3ccc(OC)cc3)C(O)C(O)C2O)cc1 (configuration not stated) | < 3.70 | 5.05 | 
27 | CCOC(=O)/C(=C\c1ccc(OCc2ccccc2)c(OC)c1)C(=O)c1ccccc1 | < 4.90 | < 4.90 | 
28 | CN=C(NC(=S)N(C)C)N(C)C |  |  | inactive
29 | CC1=CC(C)(C)NC(=S)N1c1ccc(N(C)C)cc1 |  |  | inactive
30 | FC(F)(F)C(F)(F)c1nnc(C(F)(F)C(F)(F)F)o1 | < 3.70 | < 3.70 | 
31 | Cc1cccc(C)c1NC(=O)CCCC(=O)C(C#N)c1ccc(Cl)cc1 (configuration not stated) | < 3.87 | < 3.87 | 
32 | Clc1ncnc2c1ncn2CCCCCCCCCCCCn1cnc2c(Cl)ncnc21 |  |  | inactive
33 | c1ccc(C(c2ccccc2)[P+](c2ccccc2)(c2ccccc2)c2ccccc2)cc1 | < 4.70 | 6.43 | 
34 | Cc1ccccc1NC(=S)N/N=C(/c1ccccc1)c1ccccn1 | < 6.70 | 7.17 | 
35 | COC(=O)C12C34C=CC5(CCC6(C=CC1(CC3)O6)C52C(=O)OC)O4 (configuration not stated) |  |  | inactive
36 | CSCC(COC(C)=O)(CSC)c1ccncc1 | < 3.06 | 3.30 | 
37 | Cc1ccc2c(c1)[nH]c(=S)n2/C=C(/C#N)c1ccc([N+](=O)[O-])cc1 | < 3.70 | < 3.70 | 
38 | COC1/C=C/OC2(C)Oc3c(C)c(O)c4c(O)c(c(/C=N/N5CCCCC5)c(O)c4c3C2=O)NC(=O)C(C)=C/C=C/C(C)C(O)C(C)C(O)C(C)C(OC(C)=O)C1C (configuration not stated) | < 3.70 | 4.99 | 
39 | COc1ccc(OC)c(/C=C/C(=O)C(C)(C)C)c1 | < 3.98 | 4.72 | 
40 | O=C1CC2C1C1C=CC2n2c(=O)n(-c3ccccc3)c(=O)n21 (configuration not stated) | < 3.65 | < 3.65 | 
41 | N#CCC(=O)N/N=C(\C(=O)Nc1ccc(Cl)c(Cl)c1)C1CN(c2ccccc2)N=C1N (configuration not stated) | < 4.10 | < 4.10 | 
42 | O=C1c2ccccc2C(=O)c2c1c(-c1ccccc1)cc(CCO)c2-c1ccccc1 |  |  | inactive
43 | N#Cc1ccc(Oc2nc3ccccc3nc2C(=O)O)cc1 | < 3.70 | < 3.70 | 
44 | O=c1oc2cccnc2n1CCCCN1CCN(c2ccccc2)CC1 | < 3.70 | 3.90 | 
45 | O=S1OCCO1 | < 2.64 | < 2.64 | 
46 | COC1(OC)C2(Cl)C(Cl)=C(Cl)C1(Cl)C1c3ccc(C(C)=O)c4cccc(c34)C12 (configuration not stated) |  |  | inactive

Row | SMILES | pEC50 | pIC50 | outcome
47 | N#Cc1cnsc1 |  |  | inactive
48 | CC1=C(C)C(=O)C(C2=CC(=O)c3ccccc3C2=O)=C(C2=CC(=O)c3ccccc3C2=O)C1=O | < 3.70 | 5.47 | 
49 | O=c1c2ccccc2nc(N/N=C/c2ccc(Cl)cc2)n1-c1ccccc1 | < 3.70 | < 3.70 | 
50 | OC(c1ccccc1)c1ccc(C(O)c2ccccc2)cc1 (configuration not stated) | < 3.91 | < 3.91 | 
51 | C=CCN1C(N)=C(C#N)C(C#N)(C#N)C1CCC (configuration not stated) | < 3.70 | 3.82 | 
52 | COc1ncc(/C=C2\OC(=O)c3ccccc32)c(OC)n1 | < 3.70 | < 3.70 | 
53 | CCC(N)Cc1c[nH]c2ccccc12 (configuration not stated) | < 3.70 | < 3.70 | 
54 | Cc1cccc(C)c1NC(=O)CCC(=O)NNc1nnc(C)n1N | < 3.40 | < 3.40 | 
55 | CC12C(C(=O)O)C1(c1ccccc1)C2C(=O)O (configuration not stated) | < 2.97 | < 2.97 | 
56 | Cc1nnc2n(c1=O)CCCN2C | < 3.70 | < 3.70 | 
57 | N#C/C(=C/NC(=S)N=Nc1c(O)[nH]c2ccccc12)C(N)=O | < 3.70 | 3.71 | 
58 | COc1ccc(C2[C@@H](Cl)C(=O)N2c2ccc(OC)cc2)cc1 (some centres not stated) |  |  | inactive
59 | C=C(C)[C@H]1CC[C@@]2(C)C(C1)[C@H](C)CC[C@@H]2O (some centres not stated) |  |  | inactive
60 | O=C1NCCCCC1CCCC#Cc1ccccc1 (configuration not stated) | < 4.13 | 4.34 | 
61 | CCCN(CCC)C(=O)c1nc(N)nc(-c2ccc(OC)cc2)c1-c1ccc(OC)cc1 | < 4.78 | < 4.78 | 
62 | COC(=O)[C@H]1C[C@H]1NC(=O)C(CC(=O)OCc1ccccc1)NC(=O)OCc1ccccc1 (some centres not stated) | < 3.70 | 4.10 | 
63 | Cc1cc(C)nc(NS(=O)(=O)c2ccc(Nc3c4ccccc4nc4c(C(=O)Nc5ccc(S(=O)(=O)N=C(N)N)cc5)cccc34)cc2)n1 | 4.31 | 4.29 | 
64 | Cc1c2ccccc2nc(CSCCO)[n+]1[O-] | < 3.70 | < 3.70 | 
65 | O=C(/C=C/c1ccccc1)c1c2ccccc2cc2ccccc12 | < 5.05 | < 5.05 | 
66 | COc1c2c(c(O)c3c4c(c(C)cc13)C1OC3(C(OC)OC5CC(C)(O)C(OC6CC(C)(O)C(O)C(C)O6)C(C)O5)OC1C(OC)(O4)C31CO1)C(=O)C(O)CC2OC1CC(C)(O)C(OC(C)=O)C(C)O1 (configuration not stated) | < 4.58 | 8.08 | 
67 | N/C=N/S(=O)(=O)c1ccc(NC(=O)COC(=O)c2cccc3c(=O)c4ccccc4[nH]c23)cc1 |  |  | inactive
68 | O=C(CCCl)Nc1c(Cl)cccc1Cl |  |  | inactive
69 | O=C(NCCc1c[nH]c2ccccc12)C1CC1 | < 3.70 | 3.96 | 

Row | SMILES | pEC50 | pIC50 | outcome
70 | OC1CCC[C@@H]1Sc1ccccc1 (some centres not stated) |  |  | inactive
71 | CC1=CC(O)C(Br)C(C)(C)C12CCC(C)(Cl)C(Br)C2 (configuration not stated) | < 3.70 | 4.60 | 
72 | CC1(C)CCCC2(C)C1CCC1(C)OC3=CC(=O)C(O)=CC3=CC12 (configuration not stated) | < 4.52 | 5.55 | 
73 | CCOC(=O)Cn1c(=O)n(C)c(=O)c2[nH]cnc21 | < 3.00 | < 3.00 | 
74 | Clc1cc2n[se]nc2cc1Cl |  |  | inactive
75 | CCSc1cc(C(=O)OC)c2n(c1=O)CCCC2 | < 3.70 | < 3.70 | 
76 | Cc1cc2nc(-c3ccccc3[N+](=O)[O-])[nH]c2cc1C |  |  | inactive
77 | CCOC(=O)C1N(S(=O)(=O)c2ccc(C)cc2)CCC12c1ccccc1NC2c1ccc(OC)c(OC)c1 (configuration not stated) |  |  | inactive
78 | CN1C(=O)CNS1(=O)=O |  |  | inactive
79 | CN(C)c1cc(CN[C@@H](Cc2cn(C(c3ccccc3)(c3ccccc3)c3ccccc3)cn2)C(=O)O)nc(CN[C@@H](Cc2cn(C(c3ccccc3)(c3ccccc3)c3ccccc3)cn2)C(=O)O)c1 | < 4.00 | 4.71 | 
80 | COCc1cc2c(cc1/C(=C/[N+](=O)[O-])CS(=O)(=O)c1ccccc1)OCO2 | < 3.70 | 3.99 | 
81 | CCN(CC)/[N+]([O-])=N/OC |  |  | inactive
82 | Cc1cc(S(=O)(=O)Nc2nncn2-c2ccc(Cl)cc2)c(S)cc1Cl |  |  | inactive
83 | c1ccc(N=c2snc3scc(-c4ccccc4)n23)cc1 | < 4.63 | < 4.63 | 
84 | CCCC(O)CNCc1ccc(N(C)C)cc1 (configuration not stated) |  |  | inactive
85 | Cc1ccc(/C(O)=C/C(=O)C(=O)NC23CC4CC(CC(C4)C2)C3)cc1 | < 3.70 | 4.11 | 
86 | NC(CCC(=O)NC(CS(=O)(=O)O)C(=O)O)C(=O)O (configuration not stated) | < 3.22 | < 3.22 | 
87 | O=C1c2ccccc2CC12Cc1cc3c(cc1C2)CCC3 | < 3.70 | < 3.70 | 
88 | NC(=O)c1ncn(CCCCCO)c1N | < 3.70 | < 3.70 | 
89 | O=C(Nc1cccnc1)c1ccccc1[Se][Se]c1ccccc1C(=O)Nc1cccnc1 | 5.49 | 5.16 | 
90 | O=C1c2c(O)cc(O)cc2OC(c2ccc(O)cc2O)C1O (configuration not stated) | < 3.70 | 4.03 | 
